# Assays:
# Type in all cases: functional
# Pyricularia oryzae = assay: Fungicidal activity against Magnaporthe oryzae Cav. race 003 assessed as rice blast disease control at 500 ppm treated 24 hr before inoculation by preventive manner
# Botrytis cinerea = assay: Fungicidal activity against Botryotinia fuckeliana assessed as cucumber gray mold disease control at 500 ppm treated 24 hr before inoculation by preventive manner
# Podosphaera fuliginea [1] = assay: Fungicidal activity against Podosphaera fuliginea assessed as cucumber powdery mildew disease control at 500 ppm treated 24 hr before inoculation by preventive manner
# Podosphaera fuliginea [2] = assay: Fungicidal activity against Podosphaera fuliginea assessed as cucumber powdery mildew disease control at 125 ppm treated 24 hr before inoculation by preventive manner
# Podosphaera fuliginea [3] = assay: Fungicidal activity against Podosphaera fuliginea assessed as cucumber powdery mildew disease control at 7.8 ppm treated 24 hr before inoculation by preventive manner
SMILES,Activity (Pyricularia oryzae),Activity (Botrytis cinerea),Activity (Podosphaera fuliginea [1]),Activity (Podosphaera fuliginea [2]),Activity (Podosphaera fuliginea [3])
COC(=O)C(OC)c1cccc(Oc2ccc(C)c(C)c2)c1 (centres undefined),<90%,<50%,90%,–,–
COC(=O)C(OC)c1cccc(COc2ccc(Cl)cc2)c1 (centres undefined),<90%,<50%,–,90%,–
CNC(=O)C(OC)c1cccc(CSc2cc(C)ccc2C)c1 (centres undefined),<90%,<50%,90%,–,–
CNC(=O)C(OCOC)c1cccc(COc2cc(C)ccc2C)c1 (centres undefined),<90%,<50%,<90%,–,–
COC(=O)C(OC)c1cccc(COc2ccc(C)cc2C)c1 (centres undefined),90%,50%,<90%,–,–
COC(=O)C(OC)c1cccc(COc2cc(Cl)cc(Cl)c2)c1 (centres undefined),<90%,<50%,–,90%,–
CNC(=O)C(OC)c1cccc(OCc2ccc(Cl)cc2)c1 (centres undefined),<90%,<50%,<90%,–,–
CCOC(C(=O)NC)c1cccc(COc2cc(C)ccc2C)c1 (centres undefined),<90%,<50%,–,–,90%
CNC(=O)C(OC)c1cccc(Oc2ccc(Cl)cc2)c1 (centres undefined),<90%,<50%,<90%,–,–
CNC(=O)C(OC)c1cccc(COc2ccccc2)c1 (centres undefined),<90%,50%,–,90%,–
COC(=O)C(OC)c1cccc(COc2ccc(Cl)cc2Cl)c1 (centres undefined),<90%,<50%,–,–,90%
CNC(=O)C(OC)c1cccc(COc2ccccc2Cl)c1 (centres undefined),90%,<50%,–,–,90%
COC(=O)C(OC)c1cccc(COc2cccc(C)c2C)c1 (centres undefined),90%,<50%,<90%,–,–
CNC(=O)C(OC)c1cccc(Oc2ccc(C)cc2)c1 (centres undefined),<90%,<50%,<90%,–,–
CNC(=O)C(OC)c1cccc(COc2ccc(Cl)cc2Cl)c1 (centres undefined),<90%,<50%,–,–,90%
CNC(=O)C(OC(C)=O)c1cccc(COc2cc(C)ccc2C)c1 (centres undefined),<90%,<50%,<90%,–,–
CNC(=O)C(OC)c1cccc(COc2ccccc2OC)c1 (centres undefined),<90%,<50%,<90%,–,–
COC(C(=O)SC)c1cccc(COc2cc(C)ccc2C)c1 (centres undefined),<90%,<50%,<90%,–,–
COC(=O)C(OC)c1cccc(COc2ccc(C)cc2)c1 (centres undefined),<90%,<50%,–,90%,–
CCCCNC(=O)C(OC)c1cccc(COc2cc(C)ccc2C)c1 (centres undefined),<90%,<50%,<90%,–,–
CCc1ccccc1OCc1cccc(C(OC)C(=O)OC)c1 (centres undefined),<90%,<50%,<90%,–,–
CNC(=O)C(OC)c1cccc(COc2c(C)cccc2C)c1 (centres undefined),<90%,<50%,<90%,–,–
COC(C(=O)O)c1cccc(COc2cc(C)ccc2C)c1 (centres undefined),90%,<50%,–,–,90%
CNC(=O)C(OC)c1cccc(Oc2cccc(C)c2)c1 (centres undefined),<90%,<50%,<90%,–,–
COC(=O)C(OC)c1cccc(Oc2cc(C)cc(C)c2)c1 (centres undefined),<90%,<50%,90%,–,–
CNC(=O)C(OC)c1cccc(COc2ccc(C)cc2OC)c1 (centres undefined),<90%,50%,<90%,–,–
CNC(=O)C(OC)c1cccc(Oc2ccccc2)c1 (centres undefined),<90%,<50%,<90%,–,–
CNC(=O)C(OC)c1cccc(COC(=O)c2ccc(Cl)cc2)c1 (centres undefined),<90%,<50%,<90%,–,–

# Source: ChEMBL document CHEMBL3046293, “Fungicidal Activities of -Methoxyphenylacetic Acid Derivatives” (2002)
